Marks after values point to notes of the source that are not given here.
How the values were obtained:
human P2X3 receptor = biological target: T1, human P2X3 receptor (Homo sapiens, UniProt P56373); experiment: In vitro biological activity evaluation, P2X3 antagonist mode FLIPR assay with BZATP agonist
T1 sequence (P56373 1-397): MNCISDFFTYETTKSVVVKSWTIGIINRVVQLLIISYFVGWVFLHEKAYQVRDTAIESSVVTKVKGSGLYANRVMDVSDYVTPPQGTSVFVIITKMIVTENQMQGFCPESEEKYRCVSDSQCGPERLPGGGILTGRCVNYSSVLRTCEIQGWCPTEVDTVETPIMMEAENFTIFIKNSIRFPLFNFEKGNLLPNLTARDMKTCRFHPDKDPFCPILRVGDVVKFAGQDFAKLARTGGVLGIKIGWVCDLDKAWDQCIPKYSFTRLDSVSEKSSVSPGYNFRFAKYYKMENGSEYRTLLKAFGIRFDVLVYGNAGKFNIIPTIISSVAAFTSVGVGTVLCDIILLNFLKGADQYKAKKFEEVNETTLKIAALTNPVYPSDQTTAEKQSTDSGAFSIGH
Description: A HEK293 cell line stably transfected with human P2X3 receptor was used.

[1] = tested on: ammonia-induced coughs in mice; experiment: Mouse coughing test (concentrated ammonia induced cough); format: in vivo; conditions: KM mice, 30 mg/kg intragastric; for Number of coughs: 30 min after administration; for Number of coughs / Number of coughs 60 min / Number of coughs 120 min: coughs within 3 min, group mean; for duration of cough-relieving action compared to Comparative Compound 1: 60 and 120 min; for Number of coughs 60 min: 60 min after administration; for Number of coughs 120 min: 120 min after administration
Description: Healthy adult KM mice, half male and half female, 6 mice in each group, each weighing about 28-30 g.
Most of the animal coughing models reported in the literature use mechanical, chemical and electrical stimulation to stimulate the animal's nerves and receptors to trigger coughing. Based on the characteristics of the candidate compounds and the existing similar target compounds as a reference, the concentrated ammonia induction method was preliminarily selected to establish a coughing model in mice.
Preparation of 50% aqueous ammonia solution: 2.5 ml aqueous ammonia was dissolved in a 5 ml injection solution of 0.9% sodium chloride, and mixed well.
Preparation of solutions of the positive control and Comparative Compound 1: each of 9 mg positive control and 9 mg Comparative Compound 1 was weighed and dissolved in a 3 ml solution of 0.5% CMC-Na, and fully mixed, to obtain a 3 mg/ml solution.
Preparation of solutions of the compounds of Examples: 9 mg of the compound of each Example was dissolved in a 3 ml solution of 0.5% CMC-Na, and mixed thoroughly, to obtain a 3 mg/ml solution.
Grouping: Comparative Example 1 group, Positive control group, Example group, Model group. Six KM mice in each group were intragastrically given Comparative Compound 1 (30 mg/kg), the positive control (Gefapixant, purchased, 30 mg/kg), and an Example compound (30 mg/kg), and the model group was given an equal volume of 0.5% CMC-Na solution. 30 min, 60 min, or 120 min after administration, each mouse was placed in a 500 ml beaker, and a cotton ball (weight: 100±5 mg) containing 0.3 ml 50% aqueous ammonia was placed in the beaker. The number of typical coughs by the mouse within 3 min was observed (typical cough: contraction of the abdominal muscle or contraction of the chest, accompanied by wide opening of the mouth and a coughing sound).
• (1) Cough judgment criteria: Cough was judged by contraction of the abdominal muscle or contraction of the chest, accompanied by wide opening of the mouth and a coughing sound. • (2) The number of coughs by the mice within 3 min was recorded with a stop watch, and statistically analyzed with software. The data of each group were statistically expressed in mean±standard deviation, and one-way ANOVA between multiple groups was performed, P<0.05 for statistically significant difference.

sense of taste of rats = experiment: Taste disorder test (quinine water / tap water two-bottle drinking); format: in vivo, SD rats; conditions: 10 mg/kg intravenous; for Quinine water/tap water (%): SD rats, drinking 0 to 15 min after administration, 0.3 mM quinine; for effect on the sense of taste: quinine water/tap water ratio vs solvent group, in words
Description: Preparation of 0.3 mM quinine solution: 119.20 mg quinine hydrochloride was weighed and dissolved in 1,000 ml tap water, and mixed well.
Preparation of test sample solution: 40 mg of the test sample was weighed and added to an appropriate amount of DMSO and dissolved, then a solution of solubilizer HS-15 was added thereto and mixed well, and 16 ml saline was added, to obtain a solution of 2.5 mg/ml.
Animals and grouping: male SD rats each about 160 to 180 g, 10 rats per group, with similar average weight in each group, fed in separate cages.
Drinking habit training: the animals in each group were given normal drinking water for 30 minutes at 8:30 am and 4:30 pm every day, with water deprivation for the rest of the day, and trained for 5 days, wherein two bottles of water placed in the left and right positions respectively were renewed every day.
Administration: After water deprivation over the night before the experiment, on the next morning 4 mL/kg (10 mg/kg) of the test sample was injected intravenously in the tail vein of the rats in the test group, and 4 mL/kg (10 mg/kg) of 0.5% HS-15 was injected intravenously in the model group.
• (1) Drinking water measurement: after injection, the animals were put back to their original cages, and the measurement time of each group was in the window covering the Tmax of the drugs (the measurement time was from 0 min to 15 min after administration); in each cage a bottle of normal drinking water and a bottle of drinking water containing 0.3 mM quinine hydrochloride (Quinie) were placed, and the left and right positions of the two bottles in all cages were the same. The animals were allowed to drink freely for 15 min, and the volume of water consumed from the two bottles was measured separately, accurate to 0.1 ml. • (2) Statistical analysis of data: the volume of the consumed quinine bitter water and the volume of the consumed tap water were measured, the percentage of quinine water relative to tap water was calculated, and ANOVA was used to check whether there was a significant difference between the groups.

[2] = tested on: refractory or unexplained chronic cough in adult patients; conditions: cited from earlier work

IC50 (human P2X3 receptor) [µM]	Quinine water/tap water (%) (sense of taste of rats)	effect on the sense of taste (sense of taste of rats)	SMILES	Number of coughs [1]	primary endpoint ([2]; 15 mg twice daily)	24-hour cough frequency ([2]; 45 mg twice daily, Week 12 (COUGH-1) and Week 24 (COUGH-2), compared with placebo)	discontinuation due to adverse events ([2]; 45-mg group)	taste-related adverse events ([2]; 45-mg group)	duration of cough-relieving action compared to Comparative Compound 1 ([1]; in words)	Number of coughs 60 min [1]	Number of coughs 120 min [1]	cough relieving effect 120 min after administration ([1]; vs model group, in words)
0.0101 to 0.1	–	–	C[C@@H](Cn1c(=O)nc(Nc2ccc(Oc3ccc(OC(F)F)cn3)cc2)n(Cc2ccc(Cl)cc2)c1=O)C(=O)NS(=O)(=O)c1ccc(F)cc1 [Example 8, (S)-3-(3-(4-chlorobenzyl)-4-(4-(5-(5-(difluoromethoxy)pyridin-2-yl)oxyphenyl)amino)-2,6-dioxo-3,6-dihydro-1,3,5-triazin-1(2H)-yl)-N-(4-(4-fluorophenyl)sulfonyl)-2-methylpropionamide]	29.83*	–	–	–	–	–	–	–	–
–	79.01%**	–	COc1cc(C(C)C)c(Oc2cnc(N)nc2N)cc1S(N)(=O)=O [Positive control, Gefapixant]	20.51**	did not meet the primary endpoint	statistically significant reduction	higher frequency	higher incidence	–	–	–	–
< 0.01	41.54%^Δ	almost no effect	CC(C)NS(=O)(=O)NC(=O)[C@@H](C)Cn1c(=O)nc(Nc2ccc(Oc3ccccn3)cc2)n(Cc2ccc(Cl)cc2)c1=O [Example 6]	20.60**	–	–	–	–	significantly prolonged	17.63**	28.78*^Δ	–
< 0.01	–	–	CNS(=O)(=O)NC(=O)[C@@H](C)Cn1c(=O)nc(Nc2ccc(Oc3ccc(Cl)cn3)cc2)n(Cc2ccc(Cl)cc2)c1=O [Example 10]	20.27**	–	–	–	–	significantly prolonged	20.33**	24.13**^Δ	–
0.0101 to 0.1	–	–	Cc1ccc(S(=O)(=O)NC(=O)[C@@H](C)Cn2c(=O)nc(Nc3ccc(Oc4ccccn4)cc3)n(Cc3ccc(Cl)cc3)c2=O)cc1 [Example 9]	25.11*	–	–	–	–	–	–	–	–
< 0.01	37.12%^Δ	almost no effect	CC(C)(Cn1c(=O)nc(Nc2ccc(Oc3ccccn3)cc2)n(Cc2ccc(Cl)cc2)c1=O)C(=O)NS(C)(=O)=O [Example 11]	17.62**	–	–	–	–	significantly prolonged	16.68**	18.90**^Δ	–
< 0.01	37.01%^Δ	almost no effect	C[C@@H](Cn1c(=O)nc(Nc2ccc(Oc3ccccn3)cc2)n(Cc2ccc(Cl)cc2)c1=O)C(=O)NS(C)(=O)=O [Example 1]	13.33**	–	–	–	–	significantly prolonged	18.37**	17.28**^Δ	–
0.0101 to 0.1	–	–	C[C@@H](Cn1c(=O)nc(Nc2ccc(Oc3ccccn3)cc2)n(Cc2ccc(Cl)cc2)c1=O)C(=O)NS(=O)(=O)c1ccccc1 [Example 7]	28.66*	–	–	–	–	–	–	–	–
< 0.01	–	–	C[C@@H](Cn1c(=O)nc(Nc2ccc(Oc3ccccn3)cc2)n(Cc2ccc(Cl)cc2)c1=O)C(=O)O [Comparative Example 1, reference compound]	15.61**	–	–	–	–	–	22.29**	45.21	did not have an obvious cough relieving effect
< 0.01	38.11%^Δ	almost no effect	C[C@@H](Cn1c(=O)nc(Nc2ccc(Oc3ccccn3)cc2)n(Cc2ccc(Cl)cc2)c1=O)C(=O)NS(=O)(=O)N(C)C [Example 3]	15.34**	–	–	–	–	significantly prolonged	16.98**	18.56**^Δ	–
< 0.01	39.39%^Δ	almost no effect	CS(=O)(=O)NC(=O)C1(Cn2c(=O)nc(Nc3ccc(Oc4ccccn4)cc3)n(Cc3ccc(Cl)cc3)c2=O)CC1 [Example 12]	19.39**	–	–	–	–	significantly prolonged	20.17**	24.14**^Δ	–
< 0.01	–	–	CCS(=O)(=O)NC(=O)[C@@H](C)Cn1c(=O)nc(Nc2ccc(Oc3ccccn3)cc2)n(Cc2ccc(Cl)cc2)c1=O [Example 2]	17.12**	–	–	–	–	–	–	–	–
0.0101 to 0.1	–	–	C[C@@H](Cn1c(=O)nc(Nc2ccc(Oc3ccccn3)cc2)n(Cc2ccc(Cl)cc2)c1=O)C(=O)NS(=O)(=O)C(F)(F)F [Example 4]	28.61*	–	–	–	–	–	–	–	–
< 0.01	–	–	C[C@@H](Cn1c(=O)nc(Nc2ccc(Oc3ccccn3)cc2)n(Cc2ccc(Cl)cc2)c1=O)C(=O)NS(=O)(=O)N1CCCC1 [Example 5]	12.85**	–	–	–	–	significantly prolonged	16.25**	23.11**^Δ	–

Source: patent US20240287029A1, “SULFONAMIDES, METHOD FOR PREPARATION THEREOF, AND USE THEREOF” (CHENGDU SHIBEIKANG BIOMEDICAL TECHNOLOGY CO., LTD., priority 2021, published 2024)
